{
  "source": "the kinase profiling compilation of Christmann-Franck et al. (2016)",
  "conditions_in_all_cases": "compound 10.0 µM",
  "key": {"ABL2 (human)": {"target": "ABL2 (human) (UniProt P42684)"}, "TYRO3 (human)": {"target": "TYRO3 (human) (UniProt Q06418)"}, "FES (human)": {"target": "FES (human) (UniProt P07332)"}, "STK38 (human)": {"target": "STK38 (human) (UniProt Q15208)"}, "PRKCI (human)": {"target": "PRKCI (human) (UniProt P41743)"}, "PRKCB1 (human)": {"target": "PRKCB1 (human) (UniProt P05771)"}, "MAP3K14 (human)": {"target": "MAP3K14 (human) (UniProt Q99558)"}, "EPHA6 (human)": {"target": "EPHA6 (human) (UniProt Q9UF33)"}, "ULK3 (human)": {"target": "ULK3 (human) (UniProt Q6PHR2)"}, "AKT2 (human)": {"target": "AKT2 (human) (UniProt P31751)"}, "KDR (human)": {"target": "KDR (human) (UniProt P35968)"}, "ULK1 (human)": {"target": "ULK1 (human) (UniProt O75385)"}, "RPS6KA1 KD1 KD2 (human)": {"target": "RPS6KA1 KD1 KD2 (human) (UniProt Q15418)"}, "MAPK12 (human)": {"target": "MAPK12 (human) (UniProt P53778)", "sequence (P53778 whole entry, looked up)": "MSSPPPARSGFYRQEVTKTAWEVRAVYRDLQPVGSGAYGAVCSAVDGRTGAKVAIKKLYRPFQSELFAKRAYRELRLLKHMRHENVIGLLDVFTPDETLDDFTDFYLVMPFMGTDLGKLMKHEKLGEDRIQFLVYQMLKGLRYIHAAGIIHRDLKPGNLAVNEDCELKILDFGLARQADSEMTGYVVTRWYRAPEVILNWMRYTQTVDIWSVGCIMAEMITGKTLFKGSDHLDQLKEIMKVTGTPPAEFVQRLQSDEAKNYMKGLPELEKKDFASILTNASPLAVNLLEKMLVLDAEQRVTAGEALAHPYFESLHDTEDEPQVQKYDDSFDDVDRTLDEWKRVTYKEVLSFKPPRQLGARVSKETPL"}, "TAOK2 (human)": {"target": "TAOK2 (human) (UniProt Q9UL54)"}, "CSNK2A2 (human)": {"target": "CSNK2A2 (human) (UniProt P19784)"}, "PRKG1 (human)": {"target": "PRKG1 (human) (UniProt Q13976)", "sequence (Q13976 whole entry, looked up)": "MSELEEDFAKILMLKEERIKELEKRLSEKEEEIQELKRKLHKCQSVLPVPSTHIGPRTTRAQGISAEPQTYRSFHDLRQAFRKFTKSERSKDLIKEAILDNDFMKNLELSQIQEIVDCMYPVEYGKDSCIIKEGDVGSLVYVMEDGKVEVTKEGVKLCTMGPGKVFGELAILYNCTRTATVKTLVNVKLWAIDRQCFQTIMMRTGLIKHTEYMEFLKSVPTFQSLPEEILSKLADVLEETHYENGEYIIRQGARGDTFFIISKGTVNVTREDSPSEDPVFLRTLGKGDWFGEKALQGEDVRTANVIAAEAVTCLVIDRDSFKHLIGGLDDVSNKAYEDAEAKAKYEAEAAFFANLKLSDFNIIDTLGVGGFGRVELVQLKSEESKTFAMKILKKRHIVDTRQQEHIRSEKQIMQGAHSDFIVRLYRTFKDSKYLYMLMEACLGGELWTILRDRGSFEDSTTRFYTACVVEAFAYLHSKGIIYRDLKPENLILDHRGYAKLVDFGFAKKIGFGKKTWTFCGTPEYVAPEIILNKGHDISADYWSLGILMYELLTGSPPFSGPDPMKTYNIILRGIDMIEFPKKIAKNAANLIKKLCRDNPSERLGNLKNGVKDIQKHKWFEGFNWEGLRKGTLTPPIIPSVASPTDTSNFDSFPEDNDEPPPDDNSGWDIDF"}, "CDK9 CCNK (human)": {"target": "CDK9 CCNK (human) (UniProt P50750+O75909)"}, "ZAP70 (human)": {"target": "ZAP70 (human) (UniProt P43403)"}, "JAK2 JH1 JH2 (human)": {"target": "JAK2 JH1 JH2 (human) (UniProt O60674)"}, "FER (human)": {"target": "FER (human) (UniProt P16591)"}, "CDK2 CCNE1 (human)": {"target": "CDK2 CCNE1 (human) (UniProt P24864+P24941)"}, "INSR (human)": {"target": "INSR (human) (UniProt P06213)", "sequence (P06213 whole entry, looked up)": "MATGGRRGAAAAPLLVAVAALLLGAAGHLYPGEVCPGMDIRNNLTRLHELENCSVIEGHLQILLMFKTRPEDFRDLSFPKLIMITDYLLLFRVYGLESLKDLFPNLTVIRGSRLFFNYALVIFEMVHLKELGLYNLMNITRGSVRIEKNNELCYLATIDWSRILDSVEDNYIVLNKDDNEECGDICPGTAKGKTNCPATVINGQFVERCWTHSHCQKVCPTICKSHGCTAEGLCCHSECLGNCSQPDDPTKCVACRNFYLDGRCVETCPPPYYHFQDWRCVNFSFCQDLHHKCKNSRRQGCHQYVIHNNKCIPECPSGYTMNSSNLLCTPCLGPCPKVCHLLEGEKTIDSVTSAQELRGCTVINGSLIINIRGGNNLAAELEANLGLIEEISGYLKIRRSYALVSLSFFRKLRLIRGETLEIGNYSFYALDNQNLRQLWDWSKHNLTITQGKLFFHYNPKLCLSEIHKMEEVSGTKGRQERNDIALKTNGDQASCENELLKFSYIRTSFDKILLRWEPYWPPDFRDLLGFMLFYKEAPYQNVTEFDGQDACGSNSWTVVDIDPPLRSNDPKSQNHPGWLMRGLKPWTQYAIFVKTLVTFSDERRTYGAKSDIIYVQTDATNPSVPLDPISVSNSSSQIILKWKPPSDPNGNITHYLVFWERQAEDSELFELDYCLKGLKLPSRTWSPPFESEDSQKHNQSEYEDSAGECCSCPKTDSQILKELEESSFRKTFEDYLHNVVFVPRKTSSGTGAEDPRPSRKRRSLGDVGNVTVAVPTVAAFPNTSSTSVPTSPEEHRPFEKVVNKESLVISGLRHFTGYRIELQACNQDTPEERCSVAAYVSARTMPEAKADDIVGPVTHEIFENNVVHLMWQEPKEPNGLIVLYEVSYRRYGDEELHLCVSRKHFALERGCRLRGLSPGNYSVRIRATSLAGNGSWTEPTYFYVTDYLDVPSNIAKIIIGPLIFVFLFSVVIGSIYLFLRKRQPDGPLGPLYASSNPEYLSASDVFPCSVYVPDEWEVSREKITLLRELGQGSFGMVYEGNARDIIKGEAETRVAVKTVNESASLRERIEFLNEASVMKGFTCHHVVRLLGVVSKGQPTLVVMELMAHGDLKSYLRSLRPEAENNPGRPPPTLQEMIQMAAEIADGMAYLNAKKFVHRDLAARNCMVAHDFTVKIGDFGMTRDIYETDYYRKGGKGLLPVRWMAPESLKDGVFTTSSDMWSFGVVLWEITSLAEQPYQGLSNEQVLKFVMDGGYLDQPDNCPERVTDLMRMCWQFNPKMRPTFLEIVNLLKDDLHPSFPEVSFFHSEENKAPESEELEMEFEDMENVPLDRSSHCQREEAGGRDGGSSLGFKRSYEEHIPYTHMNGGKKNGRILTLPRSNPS"}, "EPHA4 (human)": {"target": "EPHA4 (human) (UniProt P54764)"}, "STK25 (human)": {"target": "STK25 (human) (UniProt O00506)"}, "CDC42BPB (human)": {"target": "CDC42BPB (human) (UniProt Q9Y5S2)"}, "ULK2 (human)": {"target": "ULK2 (human) (UniProt Q8IYT8)"}, "DYRK2 (human)": {"target": "DYRK2 (human) (UniProt Q92630)", "sequence (Q92630 whole entry, looked up)": "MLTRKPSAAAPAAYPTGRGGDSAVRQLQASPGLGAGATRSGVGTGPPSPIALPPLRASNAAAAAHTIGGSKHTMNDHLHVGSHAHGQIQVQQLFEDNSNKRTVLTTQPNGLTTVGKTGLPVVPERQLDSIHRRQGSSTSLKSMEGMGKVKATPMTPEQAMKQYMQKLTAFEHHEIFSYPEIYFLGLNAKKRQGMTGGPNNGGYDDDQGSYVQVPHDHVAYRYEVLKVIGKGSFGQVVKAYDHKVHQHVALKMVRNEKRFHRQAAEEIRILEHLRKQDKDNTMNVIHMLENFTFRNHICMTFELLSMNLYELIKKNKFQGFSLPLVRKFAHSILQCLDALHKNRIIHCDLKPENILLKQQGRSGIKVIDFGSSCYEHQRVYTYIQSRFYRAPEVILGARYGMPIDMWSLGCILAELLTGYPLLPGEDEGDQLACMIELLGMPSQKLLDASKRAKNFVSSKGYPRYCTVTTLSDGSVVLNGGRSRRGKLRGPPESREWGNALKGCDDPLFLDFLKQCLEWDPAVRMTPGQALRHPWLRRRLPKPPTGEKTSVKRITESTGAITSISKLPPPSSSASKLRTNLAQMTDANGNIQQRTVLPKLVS"}, "ADRBK1 (human)": {"target": "ADRBK1 (human) (UniProt P25098)"}, "BMX (human)": {"target": "BMX (human) (UniProt P51813)", "sequence (P51813 whole entry, looked up)": "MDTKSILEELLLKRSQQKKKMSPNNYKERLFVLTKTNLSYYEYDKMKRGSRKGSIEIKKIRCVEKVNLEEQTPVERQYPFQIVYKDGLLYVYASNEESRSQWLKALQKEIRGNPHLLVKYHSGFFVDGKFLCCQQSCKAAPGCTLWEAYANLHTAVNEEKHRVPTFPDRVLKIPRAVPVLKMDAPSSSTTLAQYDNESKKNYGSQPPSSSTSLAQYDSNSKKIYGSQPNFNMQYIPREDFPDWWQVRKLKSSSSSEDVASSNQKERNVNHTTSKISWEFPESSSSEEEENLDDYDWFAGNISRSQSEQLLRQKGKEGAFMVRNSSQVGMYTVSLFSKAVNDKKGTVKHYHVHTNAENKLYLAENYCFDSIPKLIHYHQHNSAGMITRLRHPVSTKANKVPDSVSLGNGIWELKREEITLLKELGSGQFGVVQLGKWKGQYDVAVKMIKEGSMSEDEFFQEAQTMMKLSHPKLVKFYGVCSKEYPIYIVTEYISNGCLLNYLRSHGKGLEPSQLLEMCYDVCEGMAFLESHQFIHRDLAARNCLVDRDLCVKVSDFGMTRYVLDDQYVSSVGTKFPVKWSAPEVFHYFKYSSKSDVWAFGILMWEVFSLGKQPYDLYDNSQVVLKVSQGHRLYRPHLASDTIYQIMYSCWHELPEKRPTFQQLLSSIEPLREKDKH"}, "PRKACA (human)": {"target": "PRKACA (human) (UniProt P17612)"}, "DAPK1 (human)": {"target": "DAPK1 (human) (UniProt P53355)"}, "STK16 (human)": {"target": "STK16 (human) (UniProt O75716)"}, "LCK (human)": {"target": "LCK (human) (UniProt P06239)", "sequence (P06239 whole entry, looked up)": "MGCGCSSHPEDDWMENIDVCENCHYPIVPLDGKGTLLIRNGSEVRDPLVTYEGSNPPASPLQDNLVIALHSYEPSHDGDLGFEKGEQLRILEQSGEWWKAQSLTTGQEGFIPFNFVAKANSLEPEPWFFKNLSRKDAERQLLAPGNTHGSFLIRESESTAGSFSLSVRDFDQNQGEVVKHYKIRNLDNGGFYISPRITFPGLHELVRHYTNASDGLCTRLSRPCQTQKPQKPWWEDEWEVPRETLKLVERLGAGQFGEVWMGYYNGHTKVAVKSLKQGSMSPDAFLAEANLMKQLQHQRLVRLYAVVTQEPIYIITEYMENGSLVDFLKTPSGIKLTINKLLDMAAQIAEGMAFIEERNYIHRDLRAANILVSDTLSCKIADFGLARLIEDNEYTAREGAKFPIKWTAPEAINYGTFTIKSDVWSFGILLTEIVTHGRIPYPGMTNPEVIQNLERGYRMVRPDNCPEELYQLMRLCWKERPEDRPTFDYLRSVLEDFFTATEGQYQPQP"}, "CLK1 (human)": {"target": "CLK1 (human) (UniProt P49759)"}, "PRKCH (human)": {"target": "PRKCH (human) (UniProt P24723)", "sequence (P24723 whole entry, looked up)": "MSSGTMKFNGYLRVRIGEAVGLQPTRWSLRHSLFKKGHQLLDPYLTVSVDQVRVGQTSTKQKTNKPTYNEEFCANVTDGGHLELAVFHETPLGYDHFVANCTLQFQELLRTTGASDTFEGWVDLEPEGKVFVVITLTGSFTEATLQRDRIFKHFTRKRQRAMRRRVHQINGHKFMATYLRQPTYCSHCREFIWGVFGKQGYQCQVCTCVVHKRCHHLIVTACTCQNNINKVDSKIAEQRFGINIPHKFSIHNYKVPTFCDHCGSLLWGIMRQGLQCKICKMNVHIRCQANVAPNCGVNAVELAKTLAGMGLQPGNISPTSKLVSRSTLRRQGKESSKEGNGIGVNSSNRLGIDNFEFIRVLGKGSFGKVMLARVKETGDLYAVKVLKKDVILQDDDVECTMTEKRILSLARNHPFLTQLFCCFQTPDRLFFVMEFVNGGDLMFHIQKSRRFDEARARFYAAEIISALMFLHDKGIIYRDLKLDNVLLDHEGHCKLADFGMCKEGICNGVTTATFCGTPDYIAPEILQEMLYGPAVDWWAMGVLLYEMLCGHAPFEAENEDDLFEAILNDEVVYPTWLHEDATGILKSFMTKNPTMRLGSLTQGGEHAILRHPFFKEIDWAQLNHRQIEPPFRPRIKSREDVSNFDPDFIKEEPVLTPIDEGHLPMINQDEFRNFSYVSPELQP"}, "TYK2 JH1 JH2 (human)": {"target": "TYK2 JH1 JH2 (human) (UniProt P29597)"}, "CLK3 (human)": {"target": "CLK3 (human) (UniProt P49761)"}, "DYRK1A (human)": {"target": "DYRK1A (human) (UniProt Q13627)"}, "PRKD1 (human)": {"target": "PRKD1 (human) (UniProt Q15139)"}, "PRKX (human)": {"target": "PRKX (human) (UniProt P51817)"}, "MAPK10 (human)": {"target": "MAPK10 (human) (UniProt P53779)"}, "PRKCZ (human)": {"target": "PRKCZ (human) (UniProt Q05513)"}, "TAOK1 (human)": {"target": "TAOK1 (human) (UniProt Q7L7X3)"}},
  "note": "“And” between values parts separate entries of the source, which are not always exact repeats. Identical values can stand only once.",
  "data": [
    {"smiles": "CC[C@H](C)n1cc(C)c2c(C(=O)NCc3c(C)cc(C)[nH]c3=O)cc(-c3ccc(N4CCNCC4)nc3)cc21", "values": [
      {"measurement": "residual activity", "setting": "ABL2 (human)", "value": 88, "unit": "%"},
      {"measurement": "residual activity", "setting": "TYRO3 (human)", "value": 94.5, "unit": "%"},
      {"measurement": "residual activity", "setting": "FES (human)", "value": 99, "unit": "%"},
      {"measurement": "residual activity", "setting": "STK38 (human)", "value": 97, "unit": "%"},
      {"measurement": "residual activity", "setting": "PRKCI (human)", "value": 99.5, "unit": "%"},
      {"measurement": "residual activity", "setting": "PRKCB1 (human)", "value": 102, "unit": "%"},
      {"measurement": "residual activity", "setting": "MAP3K14 (human)", "value": 99, "unit": "%"},
      {"measurement": "residual activity", "setting": "EPHA6 (human)", "value": 90, "unit": "%"},
      {"measurement": "residual activity", "setting": "ULK3 (human)", "value": 104, "unit": "%"},
      {"measurement": "residual activity", "setting": "AKT2 (human)", "value": 93.5, "unit": "%"},
      {"measurement": "residual activity", "setting": "KDR (human)", "value": 104, "unit": "%"},
      {"measurement": "residual activity", "setting": "ULK1 (human)", "value": 98, "unit": "%"},
      {"measurement": "residual activity", "setting": "RPS6KA1 KD1 KD2 (human)", "value": 76, "unit": "%"},
      {"measurement": "residual activity", "setting": "MAPK12 (human)", "value": 97.5, "unit": "%"},
      {"measurement": "residual activity", "setting": "TAOK2 (human)", "value": 103, "unit": "%"},
      {"measurement": "residual activity", "setting": "CSNK2A2 (human)", "value": 76.5, "unit": "%"},
      {"measurement": "residual activity", "setting": "PRKG1 (human)", "value": "95% and 90.5%"},
      {"measurement": "residual activity", "setting": "CDK9 CCNK (human)", "value": 96.5, "unit": "%"},
      {"measurement": "residual activity", "setting": "ZAP70 (human)", "value": 97.5, "unit": "%"},
      {"measurement": "residual activity", "setting": "JAK2 JH1 JH2 (human)", "value": 91.5, "unit": "%"},
      {"measurement": "residual activity", "setting": "FER (human)", "value": 85.5, "unit": "%"},
      {"measurement": "residual activity", "setting": "CDK2 CCNE1 (human)", "value": 96, "unit": "%"},
      {"measurement": "residual activity", "setting": "INSR (human)", "value": 95.5, "unit": "%"},
      {"measurement": "residual activity", "setting": "EPHA4 (human)", "value": 92, "unit": "%"},
      {"measurement": "residual activity", "setting": "STK25 (human)", "value": 93, "unit": "%"},
      {"measurement": "residual activity", "setting": "CDC42BPB (human)", "value": 101, "unit": "%"},
      {"measurement": "residual activity", "setting": "ULK2 (human)", "value": 99.5, "unit": "%"},
      {"measurement": "residual activity", "setting": "DYRK2 (human)", "value": 204, "unit": "%"},
      {"measurement": "residual activity", "setting": "ADRBK1 (human)", "value": 108, "unit": "%"},
      {"measurement": "residual activity", "setting": "BMX (human)", "value": 102, "unit": "%"},
      {"measurement": "residual activity", "setting": "PRKACA (human)", "value": 102, "unit": "%"},
      {"measurement": "residual activity", "setting": "DAPK1 (human)", "value": 96.5, "unit": "%"},
      {"measurement": "residual activity", "setting": "STK16 (human)", "value": 102, "unit": "%"},
      {"measurement": "residual activity", "setting": "LCK (human)", "value": 99, "unit": "%"},
      {"measurement": "residual activity", "setting": "CLK1 (human)", "value": 99, "unit": "%"},
      {"measurement": "residual activity", "setting": "PRKCH (human)", "value": 103, "unit": "%"},
      {"measurement": "residual activity", "setting": "TYK2 JH1 JH2 (human)", "value": 91.5, "unit": "%"},
      {"measurement": "residual activity", "setting": "CLK3 (human)", "value": 86, "unit": "%"},
      {"measurement": "residual activity", "setting": "DYRK1A (human)", "value": 95, "unit": "%"},
      {"measurement": "residual activity", "setting": "PRKD1 (human)", "value": 100, "unit": "%"},
      {"measurement": "residual activity", "setting": "PRKX (human)", "value": 80.5, "unit": "%"},
      {"measurement": "residual activity", "setting": "MAPK10 (human)", "value": 105, "unit": "%"},
      {"measurement": "residual activity", "setting": "PRKCZ (human)", "value": 99.5, "unit": "%"},
      {"measurement": "residual activity", "setting": "TAOK1 (human)", "value": 91.5, "unit": "%"}
    ]}
  ]
}
